The test addresses T1, β-secretase(BACE) (Homo sapiens, UniProt P56817).
T1 construct: purchased Panvera
Put plainly: BACE FS1% Inhibition Assay. The class given is biochemical. The note with it: FS1 substrate; for % Inhibition (FS) 10 μM: 10 μM test compound. The method in brief:
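Percent inhibition at each tested concentration, referenced to enzyme-free blank and vehicle-only positive control. Reaction: compound and BACE (4 μg/mL working stock) mixed 20 min at room temperature before FS1 substrate (300 μg/mL working stock), then 1 h at room temperature.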

T1 sequence (P56817 46-501): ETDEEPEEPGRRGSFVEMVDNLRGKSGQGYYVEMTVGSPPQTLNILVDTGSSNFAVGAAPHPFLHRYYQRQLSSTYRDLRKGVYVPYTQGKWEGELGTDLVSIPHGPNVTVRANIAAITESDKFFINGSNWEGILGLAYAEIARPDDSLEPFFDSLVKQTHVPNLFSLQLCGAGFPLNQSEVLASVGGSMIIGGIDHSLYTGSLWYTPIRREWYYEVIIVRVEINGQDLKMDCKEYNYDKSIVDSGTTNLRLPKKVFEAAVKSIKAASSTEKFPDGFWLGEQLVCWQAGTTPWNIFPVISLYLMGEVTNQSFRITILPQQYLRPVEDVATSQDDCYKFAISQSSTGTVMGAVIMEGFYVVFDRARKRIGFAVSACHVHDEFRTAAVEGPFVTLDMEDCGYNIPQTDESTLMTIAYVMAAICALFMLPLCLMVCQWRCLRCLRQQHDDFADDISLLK

As for `CC(=O)c1ccccc1-c1ccc2c(c1)CN(Cc1cccc(C(=O)N(C)C3CCCCC3)c1)C(N)=N2` [Compound 323], the “% Inhibition (FS) 0.3 μM” value (0.3 μM test compound) is reported as <30%. Besides, for the setting “1 μM test compound”, the “% Inhibition (FS) 1 μM” value is <30%. Moreover, the “% Inhibition (FS) 3 μM” value (3 μM test compound) was 45%.

As to `NC1=Nc2ccc(Oc3ccccc3)cc2CN1Cc1cccc(C(=O)N2CCCC3CCCCC32)c1` (centres unmarked) [Compound 212], the “% Inhibition (FS) 0.3 μM” value (0.3 μM test compound) was <30%. The “% Inhibition (FS) 1 μM” value (1 μM test compound) is <30%. Moreover, the “% Inhibition (FS) 3 μM” value (3 μM test compound) is on record as 32%.

As for `COc1cccc(OC)c1Oc1ccc2c(c1)CN(Cc1cccc(C(=O)N(C)C3CCCCC3)c1)C(N)=N2` [Compound 477], where the note is “0.3 μM test compound”, the “% Inhibition (FS) 0.3 μM” value was <30%. Besides, where the note is “1 μM test compound”, the “% Inhibition (FS) 1 μM” value is reported as <30%. For the same molecule, the “% Inhibition (FS) 3 μM” value (3 μM test compound) is <30%.

For the molecule `CN(C(=O)c1ccc2c(c1)C(N1Cc3cc(Oc4ccccc4)ccc3N=C1N)c1ccccc1-2)C1CCCCC1` (centres unmarked) [Compound 118], the “% Inhibition (FS) 3 μM” value (3 μM test compound, 3 µM) is on record as 48%. Further, the “% Inhibition (FS) 10 μM” value (10 µM) is reported as 91%.

With `CC(C)C(CC(=O)NC1C2CC3CC(C2)CC1C3)N1Cc2cc(Oc3ccccc3)ccc2N=C1N` (centres unmarked) [Compound 402], the “% Inhibition (FS) 0.3 μM” value (0.3 μM test compound) is reported as <30%. Further, the “% Inhibition (FS) 1 μM” value (1 μM test compound) turned out to be 53%. Also, the “% Inhibition (FS) 3 μM” value (3 μM test compound) turned out to be 99%.

For the molecule `CN(C(=O)CCC(C1CCCCC1)N1Cc2cc(Oc3ccccc3)ccc2N=C1N)C1(C(=O)O)CCCCC1` (centres unmarked) [Compound 741], the “% Inhibition (FS)” value is on record as −48% (0.3 μM test compound), −38% (1 μM test compound) and −25% (3 μM test compound).

In the case of `CCCCCC1CC2(C(=O)NCCN3Cc4cc(Oc5ccccc5)ccc4N=C3N)CCC1CC2` (centres unmarked) [Compound 194], the “% Inhibition (FS) 0.3 μM” value (0.3 μM test compound) was <30%. Besides, for the setting “1 μM test compound”, the “% Inhibition (FS) 1 μM” value came to 42%. Besides, the “% Inhibition (FS) 3 μM” value (3 μM test compound) was found to be 38%.

`CN(C(=O)c1cccc(CN2Cc3cc(-c4ccccc4OCc4ccccc4)ccc3N=C2N)c1)C1CCCCC1` [Compound 327]: the “% Inhibition (FS) 0.3 μM” value (0.3 μM test compound) was <30%. For the same molecule, the “% Inhibition (FS) 1 μM” value (1 μM test compound) is reported as <30%. The “% Inhibition (FS) 3 μM” value (3 μM test compound) turned out to be 48%.

For the molecule `CCCC=Cc1ccc2c(c1)CN(CCNC(=O)c1cc(C)oc1C)C(N)=N2` [Compound 587], the “% Inhibition (FS) 0.3 μM” value (0.3 μM test compound) is given as <30%. Further, the “% Inhibition (FS) 1 μM” value (1 μM test compound) is listed as <30%. Where the note is “3 μM test compound”, the “% Inhibition (FS) 3 μM” value is given as <30%.

Regarding `NC1=Nc2ccc(-c3ccncc3)cc2CN1CCNC(=O)C1CCCCC1` [Compound 576], the “% Inhibition (FS) 0.3 μM” value (0.3 μM test compound) is <30%. Moreover, the “% Inhibition (FS) 1 μM” value (1 μM test compound) is on record as <30%. Further, the “% Inhibition (FS) 3 μM” value (3 μM test compound) is recorded as <30%.

For `CC(C)(C)OC(=O)NCC(C1CCCCC1)N1Cc2cc(Oc3ccccc3)ccc2N=C1N` (centres unmarked) [Compound 257], under “0.3 μM test compound”, the “% Inhibition (FS) 0.3 μM” value came to 67%. Further, the “% Inhibition (FS) 1 μM” value (1 μM test compound) came out at 105%. The “% Inhibition (FS) 3 μM” value (3 μM test compound) stood at 111%.

Turning to `NC1=Nc2ccc(Oc3ccccc3)cc2CN1C1CCCCN(C(=O)C23CC4CC(CC(C4)C2)C3)C1` (centres unmarked) [Compound 550], the “% Inhibition (FS) 0.3 μM” value (0.3 μM test compound) is on record as <30%. Also, for the setting “1 μM test compound”, the “% Inhibition (FS) 1 μM” value is <30%. Moreover, the “% Inhibition (FS) 3 μM” value (3 μM test compound) came to 67%.

In the case of `CC(C)c1ccc(Sc2ccc3c(c2)CN(Cc2cccc(C(=O)N(C)C4CCCCC4)c2)C(N)=N3)cc1` [Compound 407], under “0.3 μM test compound”, the “% Inhibition (FS) 0.3 μM” value is given as <30%. Besides, the “% Inhibition (FS) 1 μM” value (1 μM test compound) is given as <30%. For the same molecule, for the setting “3 μM test compound”, the “% Inhibition (FS) 3 μM” value was 48%.

With `CCCC=Cc1ccc2c(c1)CN(CCNC(=O)Cc1ccccc1)C(N)=N2` [Compound 596], for the setting “0.3 μM test compound”, the “% Inhibition (FS) 0.3 μM” value is on record as <30%. The “% Inhibition (FS) 1 μM” value (1 μM test compound) is <30%. Under “3 μM test compound”, the “% Inhibition (FS) 3 μM” value was <30%.

In the case of `COc1ccccc1-c1ccc2c(c1)CN(CCNC(=O)CCCN)C(N)=N2` [Compound 494], for the setting “0.3 μM test compound”, the “% Inhibition (FS) 0.3 μM” value was <30%. The “% Inhibition (FS) 1 μM” value (1 μM test compound) is given as <30%. Besides, for the setting “3 μM test compound”, the “% Inhibition (FS) 3 μM” value was <30%.

`CCCC=Cc1ccc2c(c1)CN(CCNC(=O)C1CCCCC1)C(N)=N2` [Compound 577]: the “% Inhibition (FS) 0.3 μM” value (0.3 μM test compound) was <30%. Further, the “% Inhibition (FS) 1 μM” value (1 μM test compound) is recorded as <30%. Besides, the “% Inhibition (FS) 3 μM” value (3 μM test compound) is on record as <30%.

Turning to `COC(=O)Cc1cccc(CN(C)C(=O)CCC(C2CCCCC2)N2Cc3cc(Oc4ccccc4)ccc3N=C2N)c1` (centres unmarked) [Compound 775], the “% Inhibition (FS)” value is, setting by setting: (0.3 μM test compound) <30%; (1 μM test compound) 62%; (3 μM test compound) 111%.

Consider `NC1=Nc2ccc(Oc3ccccc3)cc2CN1CCNC(=O)CCc1ccccc1` [Compound 155], for which the “% Inhibition (FS) 10 μM” value stood at 49%. Where the note is “3 μM test compound”, the “% Inhibition (FS) 3 μM” value is given as <30%.

As to `CCCCC(CC)C(=O)NCCN1Cc2cc(-c3ccc4ccccc4c3)ccc2N=C1N` (centres unmarked) [Compound 669], the “% Inhibition (FS)” value runs as follows: (0.3 μM test compound) <30%; (1 μM test compound) <30%; (3 μM test compound) 32%.

As for `CC(=O)Nc1ccc(C(=O)NCCN2Cc3cc(-c4cccc(C(F)(F)F)c4)ccc3N=C2N)cc1` [Compound 594], the “% Inhibition (FS) 0.3 μM” value (0.3 μM test compound) was <30%. Besides, for the setting “1 μM test compound”, the “% Inhibition (FS) 1 μM” value was <30%. The “% Inhibition (FS) 3 μM” value (3 μM test compound) is given as <30%.

For the molecule `CC(=O)Nc1ccc(C(=O)NCCN2Cc3cc(-c4ccccc4)ccc3N=C2N)cc1` [Compound 591], the “% Inhibition (FS) 0.3 μM” value (0.3 μM test compound) was <30%. Also, the “% Inhibition (FS) 1 μM” value (1 μM test compound) is <30%. For the setting “3 μM test compound”, the “% Inhibition (FS) 3 μM” value is listed as <30%.

In the case of `CCCC(CCC(=O)NC1CCCCCC1)N1Cc2cc(Oc3ccccc3)ccc2N=C1N` (centres unmarked) [Compound 128], the “% Inhibition (FS) 10 μM” value is on record as 108%. In addition, where the note is “3 μM test compound”, the “% Inhibition (FS) 3 μM” value is 97%.

Take `CCCC(=O)NCCN1Cc2cc(-c3ccncc3)ccc2N=C1N` [Compound 570]: the “% Inhibition (FS) 0.3 μM” value (0.3 μM test compound) is <30%. Besides, the “% Inhibition (FS) 1 μM” value (1 μM test compound) was <30%. Besides, the “% Inhibition (FS) 3 μM” value (3 μM test compound) is <30%.

Take `NC1=Nc2ccc(Oc3ccccc3)cc2CN1CCNC(=O)C1CC1c1ccccc1` (centres unmarked) [Compound 139]: the “% Inhibition (FS) 10 μM” value came to 61%. For the setting “3 μM test compound”, the “% Inhibition (FS) 3 μM” value was <30%.

In the case of `COc1cccc(F)c1-c1ccc2c(c1)CN(CCNC(=O)C1CCOCC1)C(N)=N2` [Compound 699], the “% Inhibition (FS)” value reads like this: (0.3 μM test compound) 31%; (1 μM test compound) 64%; (3 μM test compound) 93%.

For the molecule `COc1ccccc1-c1cc2c(cc1F)CN(CCC(=O)NC1C3CC4CC(C3)CC1C4)C(N)=N2` (centres unmarked) [Compound 620], the “% Inhibition (FS) 0.3 μM” value (0.3 μM test compound) is given as <30%. Moreover, the “% Inhibition (FS) 1 μM” value (1 μM test compound) is on record as <30%. Moreover, the “% Inhibition (FS) 3 μM” value (3 μM test compound) is 37%.

On to `CC(C)CCC(=O)NCCN1Cc2cc(-c3ccc4ccccc4c3)ccc2N=C1N` [Compound 668], for which the “% Inhibition (FS)” value (0.3 μM test compound) was <30%, the “% Inhibition (FS)” value (1 μM test compound) is <30% and the “% Inhibition (FS)” value (3 μM test compound) is <30%.

In the case of `NC1=Nc2ccc(Oc3ccccc3)cc2CN1C1CCCN(C(=O)C2CCCCC2)C1` (centres unmarked) [Compound 611], the “% Inhibition (FS) 0.3 μM” value (0.3 μM test compound) is given as <30%. For the same molecule, the “% Inhibition (FS) 1 μM” value (1 μM test compound) is listed as 36%. Where the note is “3 μM test compound”, the “% Inhibition (FS) 3 μM” value is listed as <30%.

As for `Cc1cc(C)cc(Oc2ccc3c(c2)CN(Cc2cccc(C(=O)N(C)C4CCCCC4)c2)C(N)=N3)c1` [Compound 228], where the note is “0.3 μM test compound”, the “% Inhibition (FS) 0.3 μM” value is reported as <30%. Moreover, the “% Inhibition (FS) 1 μM” value (1 μM test compound) was found to be 49%. In addition, the “% Inhibition (FS) 3 μM” value (3 μM test compound) was determined as 40%.

On to `CC(C)N(C(=O)CCN1Cc2cc(Oc3ccccc3)ccc2N=C1N)C(C)C` [Compound 181], for which the “% Inhibition (FS) 0.3 μM” value (0.3 μM test compound) was <30%. For the same molecule, under “1 μM test compound”, the “% Inhibition (FS) 1 μM” value was <30%. For the same molecule, for the setting “3 μM test compound”, the “% Inhibition (FS) 3 μM” value came to 32%.

For the origin of these results see patent US8383637B2, “2-amino-quinazoline derivatives useful as inhibitors of β-secretase (BACE)” (Jansssen Pharmaceutica N.V., priority 2004, dated 2013).
